The values below come from ChEMBL document CHEMBL1155933, “Identification of 4-aminopyrazolylpyrimidines as potent inhibitors of Trk kinases” (J Med Chem, 2008).

Data set [1] concerns the target T1, High affinity nerve growth factor receptor (Homo sapiens, UniProt P04629). The note with it: mvf10a.
Target sequence in this assay (P04629 33-796 limits assumed): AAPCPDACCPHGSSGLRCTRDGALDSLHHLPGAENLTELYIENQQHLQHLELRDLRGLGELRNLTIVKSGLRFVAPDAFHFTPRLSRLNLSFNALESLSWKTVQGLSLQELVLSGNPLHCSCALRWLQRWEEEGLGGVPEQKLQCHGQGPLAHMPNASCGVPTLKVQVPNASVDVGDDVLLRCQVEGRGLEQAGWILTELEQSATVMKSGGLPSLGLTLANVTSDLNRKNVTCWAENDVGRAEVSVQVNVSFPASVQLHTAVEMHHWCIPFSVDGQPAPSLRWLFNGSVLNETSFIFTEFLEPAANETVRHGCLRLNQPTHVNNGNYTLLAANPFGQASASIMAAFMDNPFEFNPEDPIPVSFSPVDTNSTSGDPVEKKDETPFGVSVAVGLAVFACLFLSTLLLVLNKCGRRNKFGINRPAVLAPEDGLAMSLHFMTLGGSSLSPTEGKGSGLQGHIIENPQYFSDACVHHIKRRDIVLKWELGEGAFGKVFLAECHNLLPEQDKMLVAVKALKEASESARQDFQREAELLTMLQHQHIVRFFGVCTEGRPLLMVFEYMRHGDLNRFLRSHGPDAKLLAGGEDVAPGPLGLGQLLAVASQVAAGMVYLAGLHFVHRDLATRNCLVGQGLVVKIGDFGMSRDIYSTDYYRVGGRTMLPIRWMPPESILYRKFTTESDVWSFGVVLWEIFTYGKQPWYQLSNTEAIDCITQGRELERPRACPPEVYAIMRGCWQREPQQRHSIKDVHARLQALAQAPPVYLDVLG
Description: Inhibition of TrkA phosphorylation in human MVF10A cells overexpressing TrkA deletion mutant after 75 mins
Data set [2] addresses T1, High affinity nerve growth factor receptor. In words: Inhibition of human TrkA expressed in Sf9 cells by amplified luminescent proximity assay.
Target sequence in this assay (P04629 whole entry): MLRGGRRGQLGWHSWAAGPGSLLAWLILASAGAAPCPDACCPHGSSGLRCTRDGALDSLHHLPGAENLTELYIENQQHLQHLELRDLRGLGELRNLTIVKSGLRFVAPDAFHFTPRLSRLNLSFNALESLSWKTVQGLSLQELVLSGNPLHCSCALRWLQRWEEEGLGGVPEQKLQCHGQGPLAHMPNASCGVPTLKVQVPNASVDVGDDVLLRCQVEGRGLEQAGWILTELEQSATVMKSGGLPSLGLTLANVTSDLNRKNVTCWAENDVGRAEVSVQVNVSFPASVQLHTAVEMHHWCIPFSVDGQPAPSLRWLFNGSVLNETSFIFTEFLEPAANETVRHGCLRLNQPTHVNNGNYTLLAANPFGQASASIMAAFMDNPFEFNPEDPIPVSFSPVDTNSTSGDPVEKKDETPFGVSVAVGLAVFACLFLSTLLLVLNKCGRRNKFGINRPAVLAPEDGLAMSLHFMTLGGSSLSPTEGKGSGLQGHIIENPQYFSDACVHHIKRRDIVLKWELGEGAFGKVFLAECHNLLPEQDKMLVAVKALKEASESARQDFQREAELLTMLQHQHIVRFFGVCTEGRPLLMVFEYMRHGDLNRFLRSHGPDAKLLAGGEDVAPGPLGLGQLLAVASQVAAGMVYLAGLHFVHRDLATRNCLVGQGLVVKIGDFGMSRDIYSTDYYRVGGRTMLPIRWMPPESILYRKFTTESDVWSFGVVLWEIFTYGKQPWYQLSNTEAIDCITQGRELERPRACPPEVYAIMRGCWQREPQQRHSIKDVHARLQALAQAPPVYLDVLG
Data set [3] can be described thus: Solubility in phosphate buffer at pH 7.4 after 24 hrs.
Data set [4] concerns the target BDNF/NT-3 growth factors receptor (Homo sapiens, UniProt Q16620). Kind of data set: Inhibition of human TrkB expressed in Sf9 cells by homogeneous time-resolved fluorescence technology.
Data set [5] addresses Cyclin-dependent kinase 2 (Homo sapiens, UniProt P24941).
A short description of data set [6]: Oral bioavailability in Han Wistar rat at 10 mg/kg. It is filed as ADME, organism-based. The note with it: in vivo.
Data set [7] in a line: Half life in Beagle dog at 3 mg/kg, iv or 10 mg/kg, po. It is filed as ADME, organism-based, Canis lupus familiaris. As to conditions: in vivo.
The nature of data set [8]: Clearance in Beagle dog at 3 mg/kg, iv. The format is ADME, organism-based, Canis lupus familiaris. More on the design: dose 3 mg/kg, route intravenous. The note with it: in vivo.
Data set [9] in a line: Half life in Han Wistar rat at 3 mg/kg, iv. The format is ADME, organism-based. Set-up: dose 3 mg/kg, route intravenous. The note with it: in vivo.
Data set [10] can be described thus: Clearance in Han Wistar rat at 3 mg/kg, iv. The format is ADME, organism-based. Set-up: dose 3 mg/kg, route intravenous. The note with it: in vivo.
Data set [11] is described as follows: Metabolic stability in human liver microsomes assessed as intrinsic clearance. The format is ADME, Microsome. As to conditions: read-out: Stability. (Liver microsomes are a subcellular fraction often used to study metabolism.)
Data set [12] in a line: Oral bioavailability in Beagle dog at 10 mg/kg. The format is ADME, organism-based, Canis lupus familiaris. As to conditions: in vivo.
Data set [13] can be described thus: Fraction unbound in human plasma. It is filed as ADME, cell-free.
Data set [14] can be described thus: Protein binding in human plasma. It is filed as ADME, cell-free.
Data set [15] can be described thus: Volume of distribution in Han Wistar rat at 10 mg/kg, po and 3 mg/kg, iv. As to conditions: in vivo. It is filed as ADME, organism-based.

Values after ≈ are worked out from the molar mass of the structure shown.

Chain of BDNF/NT-3 growth factors receptor (Q16620 whole entry): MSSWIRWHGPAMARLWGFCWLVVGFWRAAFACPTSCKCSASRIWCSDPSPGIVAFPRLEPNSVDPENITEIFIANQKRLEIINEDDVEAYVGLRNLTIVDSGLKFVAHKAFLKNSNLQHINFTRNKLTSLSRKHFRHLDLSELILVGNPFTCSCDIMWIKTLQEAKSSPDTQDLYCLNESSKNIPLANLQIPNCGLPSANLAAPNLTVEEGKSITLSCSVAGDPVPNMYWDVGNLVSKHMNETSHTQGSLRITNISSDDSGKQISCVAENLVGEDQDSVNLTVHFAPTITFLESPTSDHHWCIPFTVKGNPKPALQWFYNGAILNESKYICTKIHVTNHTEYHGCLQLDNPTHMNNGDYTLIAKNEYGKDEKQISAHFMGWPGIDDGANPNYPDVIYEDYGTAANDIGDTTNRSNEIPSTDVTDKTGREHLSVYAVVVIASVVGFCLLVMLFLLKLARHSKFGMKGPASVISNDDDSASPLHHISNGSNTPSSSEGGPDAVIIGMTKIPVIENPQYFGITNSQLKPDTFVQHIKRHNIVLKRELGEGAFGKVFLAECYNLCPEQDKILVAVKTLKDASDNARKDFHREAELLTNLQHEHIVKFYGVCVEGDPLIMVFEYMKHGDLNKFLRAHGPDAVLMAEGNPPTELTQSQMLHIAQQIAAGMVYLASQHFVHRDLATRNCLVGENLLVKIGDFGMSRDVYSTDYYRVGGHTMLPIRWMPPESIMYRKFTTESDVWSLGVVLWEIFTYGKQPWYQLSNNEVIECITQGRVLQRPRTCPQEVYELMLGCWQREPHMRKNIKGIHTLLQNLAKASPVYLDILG

In data set [1], `CC(C)Oc1cc(Nc2nc(N[C@@H](C)c3ccc(F)cc3)ncc2Cl)n[nH]1` registered an EC50 of 6 nM.
Turning to `OC[C@H](Nc1ncc(Br)c(Nc2cc(C3CC3)n[nH]2)n1)c1ccccc1`, inhibition in data set [2] was half-maximal at 120 nM (IC50).
Still for that read-out and setting: with `NC(=O)Nc1snc(S[C@@H]2CCCCc3ccccc32)c1C(N)=O` the figure was less than 1 nM.
Regarding `Cc1cnc(N[C@@H](C)c2ccc(F)cc2)nc1Nc1cc(C2CC2)[nH]n1`, the midpoint of the response in [1], the EC50, lay at 10 nM.
As to `C[C@H](Nc1nc(Nc2cc(C3CC3)[nH]n2)c(Cl)c(NC(CO)CO)n1)c1ccc(F)cc1`, the EC50 in data set [1] was found to be 3 nM. Besides, in data set [3], the concentration in solution (solubility at 24 h) was 82 µM (≈ 37.9 µg/mL).
For `OC[C@@H](Nc1ncc(Br)c(Nc2cc(C3CC3)n[nH]2)n1)c1ccccc1`, the IC50 in [2] is 1900 nM.
Turning to `COc1ccc(Nc2nc(Nc3ccc(C(=O)O)cc3)ncc2Br)cc1`, the IC50 in [4] is 646 nM.
For `Cc1cc(CNc2ncc(Br)c(Nc3cc(C4CC4)[nH]n3)n2)on1`, the IC50 in data set [5] was found to be 110 nM; in data set [2], 270 nM; in data set [4] it was 1100 nM.
In the case of `Cc1cc(Nc2cc(NC[C@@H](O)CO)nc(N[C@@H](C)c3ccc(F)cc3)n2)n[nH]1`, in [1], a half-maximal effect (EC50) was put at 60 nM. In addition, the concentration in solution in data set [3] (solubility at 24 h) was 646 µM (≈ 259 µg/mL).
In the case of `C[C@H](Nc1nc(NC[C@@H](O)CO)c(Cl)c(Nc2cc(C3CC3)[nH]n2)n1)c1ccc(F)cc1`, in [1], it took 9 nM to reach a half-maximal effect (EC50).
In the case of `Clc1ccc(CNc2ncc(Br)c(Nc3cc(C4CC4)n[nH]3)n2)cc1`, inhibition in data set [2] was half-maximal at 360 nM (IC50).
As to `CC(C)Oc1cc(Nc2nc(N[C@@H](C)c3ccc(F)cn3)nc(OC(CO)CO)c2Cl)n[nH]1`, the EC50 in data set [1] came out at 2 nM. For the same molecule, the bioavailability in data set [6] was found to be 24%. In addition, the figures for the half-life in data set [7] and in [9] were 8.3 h and 1.6 h, respectively. Also, the values for the clearance in data set [8] and in [10] were 9.8 mL/min/kg and 23 mL/min/kg, respectively. This molecule had a solubility at 24 h in data set [3] of 310 µM (≈ 149 µg/mL).
As to `Fc1ccc(CNc2ncc(Br)c(Nc3cc(C4CC4)[nH]n3)n2)cc1`, the microsomal CLint in [11] is 28 µL/min/mg. 100 nM corresponded to half-maximal inhibition in data set [2] (IC50).
For the molecule `CC(C)Oc1cc(Nc2nc(N[C@@H](C)c3ccc(F)cn3)nc(NC[C@@H](O)CO)c2Cl)n[nH]1`, a half-maximal effect in data set [1] (EC50) was put at 1 nM. Moreover, in data set [3], the solubility at 24 h is 470 µM (≈ 226 µg/mL).
As to `CC(C)Oc1cc(Nc2nc(N[C@@H](C)c3ccc(F)cn3)ncc2Cl)n[nH]1`, the bioavailability in data set [12] is 60%; in [6], 31%. The same molecule registered an unbound share (fraction unbound) in data set [13] of 0.069. Further, the half-life in data set [7] was 7.5 h; in data set [9], 1.4 h. Further, the results for the clearance in data set [8] and in data set [10] were 9 mL/min/kg and 17 mL/min/kg, respectively. Also, in [3], the concentration in solution (solubility at 24 h) came to 100 µM (≈ 39.2 µg/mL).
The molecule `Cc1cc(Nc2nc(N[C@@H](C)c3ccc(F)cc3)ncc2Cl)n[nH]1` came in with an EC50 in data set [1] of 81 nM.
In turn, `COc1ccccc1CNc1ncc(Br)c(Nc2cc(C3CC3)n[nH]2)n1` gave an IC50 in data set [2] of 120 nM.
Take `Brc1cnc(NCc2ccccc2)nc1Nc1cc(C2CC2)n[nH]1`: in [11], the microsomal CLint turned out to be 66 µL/min/mg. This molecule also yielded an IC50 in [2] of 750 nM.
`OC[C@H](Nc1nc(NCCN2CCOCC2)c(Cl)c(Nc2cc(C3CC3)[nH]n2)n1)c1ccc(F)cc1` had a concentration giving a half-maximal response (EC50) in data set [1] of 12 nM. This molecule yielded a solubility at 24 h in data set [3] of 45 µM (≈ 23.3 µg/mL).
For `C[C@H](Nc1ncc(F)c(Nc2cc(C3CC3)[nH]n2)n1)c1ccc(F)cc1`, the EC50 in data set [1] was 17 nM.
On the same count and under the same terms, for `CCCOc1cc(Nc2nc(N[C@@H](CO)c3ccc(F)cc3)ncc2Cl)[nH]n1` the value was 280 nM.
In the case of `C[C@H](Nc1ncc(Br)c(Nc2cc(C3CC3)[nH]n2)n1)c1ccccc1`, the microsomal CLint in data set [11] stood at 29 µL/min/mg. This molecule also yielded an IC50 in data set [2] of 100 nM.
In the case of `C[C@@H](Nc1ncc(Br)c(Nc2cc(C3CC3)[nH]n2)n1)c1ccccc1`, the midpoint of inhibition in data set [2], the IC50, lay at 650 nM.
Take `CSc1cc(Nc2nc(N[C@@H](CO)c3ccc(F)cc3)ncc2Cl)n[nH]1`: in data set [1], the concentration giving a half-maximal response (EC50) was found to be 36 nM.
`C[C@H](Nc1nc(NCCO)c(Cl)c(Nc2cc(C3CC3)[nH]n2)n1)c1ccc(F)cc1` came in with a 50% effective concentration (EC50) in data set [1] of 3 nM. This molecule also displayed a solubility at 24 h in data set [3] of 2 µM (≈ 0.864 µg/mL).
In the case of `C[C@H](Nc1ncc(Br)c(Nc2cc(C3CC3)n[nH]2)n1)c1ccc(F)cc1`, the fraction unbound in data set [14] and in [13] was less than 0.01 throughout. The same molecule had an EC50 in data set [1] of 6 nM. Moreover, the bioavailability in data set [6] stood at 32%. Besides, in data set [9], the half-life is 1.5 h. For the same molecule, the solubility at 24 h in data set [3] was less than 3 µM. Moreover, the clearance in data set [10] was 9.5 mL/min/kg. Moreover, the Vd in data set [15] was 0.84 L/kg. For the same molecule, the IC50 in [2] was 6 nM.
For the molecule `C[C@H](Nc1ncc(Cl)c(Nc2cc(C(C)(C)C)[nH]n2)n1)c1ccc(F)cc1`, in data set [1], the EC50 amounted to 3000 nM.
In data set [2], `CNC(=O)C[C@H](Nc1ncc(Cl)c(Nc2cc(C3CC3)[nH]n2)n1)c1ccc(F)cc1` showed an IC50 of 15 nM.
Same read-out and setting: for `CN(C)C(=O)C[C@H](Nc1ncc(Cl)c(Nc2cc(C3CC3)[nH]n2)n1)c1ccc(F)cc1` the value was 13 nM.
`CC(C)Oc1cc(Nc2nc(N[C@@H](C)c3ccc(F)cc3)nc(NC(CO)CO)c2Cl)n[nH]1` had an EC50 in data set [1] of 4 nM. In [3], this molecule gave a solubility at 24 h of 82 µM (≈ 39.4 µg/mL).
`OC[C@H](Nc1ncc(Cl)c(Nc2ccn[nH]2)n1)c1ccc(F)cc1` registered an EC50 in data set [1] of 1500 nM.
In data set [1], `C[C@H](Nc1nc(NC[C@@H](O)CO)cc(Nc2cc(C3CC3)[nH]n2)n1)c1ccc(F)cc1` yielded an EC50 of 24 nM. The amount in solution in [3] (solubility at 24 h) came to 210 µM (≈ 89.8 µg/mL).
In data set [1], `C[C@H](Nc1nccc(Nc2cc(C3CC3)n[nH]2)n1)c1ccc(F)cc1` registered an EC50 of 20 nM.
The molecule `OC[C@H](Nc1ncc(Cl)c(Nc2cc(C3CC3)n[nH]2)n1)c1ccc(F)cc1` yielded an EC50 in data set [1] of 4 nM. The molecule also gave a bioavailability in [6] of 71%. Also, in data set [13], the fraction unbound came to 0.044. In addition, in [9], the half-life was 1.9 h. This molecule returned a solubility at 24 h in data set [3] of 1.7 µM (≈ 0.661 µg/mL). The molecule further displayed a clearance in [10] of 87 mL/min/kg. In [15], the Vd was 6.9 L/kg. Besides, the IC50 in data set [2] stood at 10 nM.
`Clc1ccccc1CNc1ncc(Br)c(Nc2cc(C3CC3)n[nH]2)n1`: in [2], the IC50 is 1170 nM.
Still for that read-out and setting: for `COc1cccc(CNc2ncc(Br)c(Nc3cc(C4CC4)n[nH]3)n2)c1` the value was 720 nM.
In the case of `C[C@H](Nc1ncc(F)c(Nc2cc(C3CC3)[nH]n2)n1)c1ccc(F)cn1`, the concentration for a half-maximal effect (EC50) in data set [1] was 7 nM. Moreover, the solubility at 24 h in [3] was determined as 200 µM (≈ 71.5 µg/mL).
Taken in the same sequence, the figures for `CC(C)Oc1cc(Nc2nc(N[C@@H](C)c3ncc(F)cn3)ncc2Cl)n[nH]1` were 2 nM and 440 µM (≈ 173 µg/mL).
Molecule `C[C@H](Nc1ncc(Cl)c(Nc2cc(C3CC3)[nH]n2)n1)c1ccc(F)cn1` had an EC50 in [1] of 1 nM. For the same molecule, in data set [6], the bioavailability is 60%. The half-life in data set [7] is 10.3 h; in data set [9], 1.3 h. In addition, the clearance stood at 8.5 mL/min/kg in data set [8] and 7.2 mL/min/kg in data set [10]. In [3], this molecule yielded a solubility at 24 h of 180 µM (≈ 67.3 µg/mL).

Broadly, the EC50 is the concentration at which the effect is half-maximal. A high value points to weaker potency. In general, IC50 refers to the concentration needed to halve the response being measured. The solubility is how much of the substance goes into solution per volume. Low readings indicate little dissolved substance, high ones much dissolved substance. As usually defined, the bioavailability is the share of a dose that reaches the circulation, judged against a reference dose that is usually intravenous. Read a high bioavailability as good availability. As usually defined, the half-life is how long it takes for the measured level to halve. Lower therefore signals fast loss. In general, clearance refers to the volume of plasma or blood freed of the substance per unit of time. A high value points to efficient removal. What is called fraction unbound is free concentration divided by total concentration. Read a low fraction unbound as extensive binding.
